# Data as given in patent US11160875B2, “Therapeutic nanofiber hydrogels for local treatment of brain-related diseases” (THE JOHNS HOPKINS UNIVERSITY, priority 2015, dated 2021).
# Non-standard residues stand in square brackets, D forms with d. Residues, ends and D or L forms follow the SMILES beside them. No end group written: not given here. ξ: configuration not given here. *: point of attachment. Paclitaxel(2'-OCO(CH2)3S) = CC(=O)O[C@H]1C(=O)[C@@]2(C)[C@H]([C@H](OC(=O)c3ccccc3)[C@]3(O)C[C@H](OC(=O)[C@H](OC(=O)CCCS*)[C@@H](NC(=O)c4ccccc4)c4ccccc4)C(C)=C1C3(C)C)[C@]1(OC(C)=O)CO[C@@H]1C[C@@H]2O; Palmitoyl = CCCCCCCCCCCCCCCC(=O)*; ξV = CC(C)C(N)C(=O)O
# Legend:
# [1] = tested on: U87 human glioblastoma cells; experiment: Cytotoxicity dose-response, SRB assay, U87; assay type: cell-based; conditions: U87, 48 h incubation
# Experimental: (§1) FIGS. 16A-16B depict the cytotoxicity evaluation of PTX-buSS-FFFRGDR (SEQ ID NO: 1), PTX-buSS-VVVRGDR (SEQ ID NO: 2), and C16-FFFRGDR (SEQ ID NO: 1) against U87 human glioblastoma cells (A) and 965 human primary brain tumor cells (B). Cells were incubated with the PTX or conjugates for 48 h (U87) or 72 h (965) and cell viability was determined by SRB assay. Data are given as mean±s.d. (n=3).
# (§2) U87 human glioblastoma cells were provided by Prof. Denis Wirtz's lab (Department of Chemical and Biomolecular Engineering, Johns Hopkins University). Primary human brain cancer cell line 965 was provided by Prof. Alfredo Quinones-Hinojosa of the Johns Hopkins Medical School. All cell lines were cultured according to providers' protocols. U87 human glioblastoma cells were grown in DMEM with 10% FBS and 1% antibiotics. Primary human brain cancer cell line 965 was grown in DEME/F12 with 2% Neuroplex, 1% antibiotics, 20 ng/mL hEGF and 20 ng/mL hFGF.
# (§3) The cytotoxicity assays of PTX-FFFRGDR (SEQ ID NO: 1), PTX-VVVRGDR (SEQ ID NO: 2), C16-FFFRGDR (SEQ ID NO: 1) were determined using a dose-response study. A 96-well plate was seeded with cell sat a density of 5×10^3 cells/well and incubated at 37° C. for 24 h. The cells were then treated with varying concentrations of paclitaxel or conjugate in cell medium and incubated for a further 48 h (U87) or 72 h (primary cell lines). Cell viability was determined by sulforhodamine-B (SRB, Sigma Aldrich) assay according to the manufacturer's protocol. The data was fitted using the Hill equation function within the Igor Pro program and used to obtain the IC50 value.
# (§4) The in vitro cytotoxicity of PTX-buSS-FFFRGDR (SEQ ID NO: 1) was assessed an compared to that of free PTX, PTX-buSS-VVVRGDR (SEQ ID NO: 2) and C16-FFFRGDR (SEQ ID NO: 1) against two brain tumor cell lines, including U87 human glioblastoma cell line and 965 primary human brain tumor cell line (FIG. 16). Cells were incubated for 48 h with varying drug concentrations and cell viability was determined using sulforhodamine B (SRB) assay. […]
# [2] = tested on: 965 human primary brain tumor cells; experiment: Cytotoxicity dose-response, SRB assay, 965; assay type: cell-based; conditions: 965 primary cells, 72 h incubation per FIG. 16 legend
# Experimental: as §1, §2, §3, §4
# [3] = Paclitaxel release study in PBS buffer with or without GSH; assay type: physicochemical; conditions: 37° C., 50 μM, presence or absence of 10 mM GSH
# Experimental: FIGS. 15A-15D illustrate fluorescence measurements to determine the CMC value of PTX-buSS-FFFRGDR (SEQ ID NO: 1) (A) and PTX-buSS-VVVRGDR (SEQ ID NO: 2) (B) based on Nile Red encapsulation within the assembled nanostructures. Representative CD spectra (solid lines) and UV-vis spectra (dash lines) of 200 μM PTX-buSS-FFFRGDR (SEQ ID NO: 1), 200 μM PTX-buSS-VVVRGDR (SEQ ID NO: 2) and 200 μM. C16-FFFRGDR (SEQ ID NO: 1) (C). Paclitaxel release study of PTX-buSS-FFFRGDR (SEQ ID NO: 1) and PTX-buSS-VVVRGDR (SEQ ID NO: 2) in PBS buffer at 37° C. at 50 μM. Solutions were incubated in the presence or absence of 10 mM GSH. Data are given as mean±s.d. (n=3).
# Since the release of the active compound is critical and tunable by altering nanofilaments morphologies, experiments to determine PTX release were carried out in PBS buffer at 37° C. in the presence or absence of 10 mM GSH (FIG. 15D).
# implanted tumors = experiment: In vivo brain tumor resection model
# Text: A) A cranial window (5 mm) was made at the same location of tumor implantation, and the tumor was resected with microscissors. A droplet of CPT nanofiber solution was placed in the resected area, forming hydrogels upon delivery. A methacrylate membrane was used to cover the skull defect.
# A droplet of CPT-HKD nanofiber solution was placed in the resected area, forming hydrogels upon delivery. A methacrylate membrane was used to cover the skull defect.
# Using the in vivo brain tumor resection model described above, mice with implanted tumors were treated with resection of the tumor alone or resection and addition of CPT-HKD hydrogel and the tumor site was subjected to BLI analysis at 1 and 2 weeks post-resection.
# Using the in vivo brain tumor resection model described above, mice with implanted tumors were treated with resection of the tumor alone or resection and addition of CPT-HKD hydrogel for 1 month. After the test period, mouse brains were removed and sectioned in 10 μm thick sections and stained using H&E methods. Tumor area was determined by stereological analysis of consecutive 10 μm thick sections. p value was calculated by Mann-Whitney U (p=0.037).
# [4] = tested on: primary glioma cells derived from three patients; conditions: varying concentrations
# Experimental: (§5) (C) Cumulative release of drug from the hydrogel formed by CPT-HKD (1.2 wt %) over one month. […] (D) Cell viability of primary glioma cells derived from three patients treated by CPT-HKD of varying concentrations.
# (§6) CPT-HKD was incubated with primary glioma cells derived from three patients to determine cytotoxicity (FIG. 18D).
# [5] = Hydrogel formation of CPT-HKD nanofibers in DPBS; assay type: physicochemical
# Experimental: as §5, §6
# [6] = Cumulative release of drug from CPT-HKD hydrogel; assay type: physicochemical
# Experimental: as §5, §6
# [7] = tested on: U87 human glioblastoma cells; experiment: Hydrogel drug release and cytotoxicity, live/dead cell staining; assay type: cell-based; conditions: U87, 24 h incubation with hydrogel, near-gel region 1 and peripheral region 2
# Experimental: FIGS. 17A-17F show the in vitro drug release and cytotoxicity study of PTX-buSS-FFFRGDR (SEQ ID NO: 1), PTX-buSS-VVVRGDR (SEQ ID NO: 2), and C16-FFFRGDR (SEQ ID NO: 1) hydrogels against U87 human glioblastoma cells. Live/dead assay cell images after 24 h of incubation with blank culture media (A and D), PTX-buSS-FFFRGDR (SEQ ID NO: 1) (B and E), or C16-FFFRGDR (SEQ ID NO: 1) (C and F).
# The in vitro drug release and cytotoxicity of PTX-buSS-FFFRGDR (SEQ ID NO: 1) was assessed and compared to that of C16-FFFRGDR (SEQ ID NO: 1) blank hydrogel against U87 human glioblastoma cells (FIG. 17). Cells were incubated for 24 h with PTX-loaded and PTX-free hydro-gels and cell viability was determined using live/dead cell staining method. Two sections along gradient decaying radius were taken to compare cell viability after treatment with different hydrogels.
molecule,measurement,setting,value
CC(=O)N[C@@H](CSSCCCC(=O)O[C@@H](C(=O)O[C@H]1C[C@@]2(O)[C@@H](OC(=O)c3ccccc3)[C@@H]3[C@]4(OC(C)=O)CO[C@@H]4C[C@H](O)[C@@]3(C)C(=O)[C@H](OC(C)=O)C(=C1C)C2(C)C)[C@@H](NC(=O)c1ccccc1)c1ccccc1)C(=O)NCC(=O)N[C@H](C(=O)NC(C(=O)N[C@H](C(=O)N[C@@H](CCCNC(=N)N)C(=O)NCC(=O)N[C@@H](CC(=O)O)C(=O)N[C@@H](CCCNC(=N)N)C(=O)O)C(C)C)C(C)C)C(C)C (stereo partly shown) [PTX-buSS-VVVRGDR] (Ac-C(Paclitaxel(2'-OCO(CH2)3S))GV[ξV]VRGDR-OH),in vitro cytotoxicity (cell viability),[1],near-identical toxicity to free PTX
same,in vitro cytotoxicity (cell viability),[2],near-identical toxicity to free PTX
same,"PTX release rate, with GSH versus without",[3],faster release rates under GSH conditions
"CPT-HKD (GVVQQHKD; also: camptothecin conjugated via buSS linker, site not given here)",BLI signal intensity versus resection only group,"implanted tumors; 1 and 2 weeks post-resection, p=0.0076",significant lower intensity
same,difference in survival versus resection only group,"implanted tumors; Kaplan-Meier analysis, p=0.01",extension of one-week
same,tumor area versus resection only group,"implanted tumors; after 1 month of treatment, stereological analysis of 10 μm sections, p=0.037",Reduces Brain Tumor Area
same,survival (Kaplan-Meier),"implanted tumors; resection plus hydrogel, resection only 35 days, p=0.01",41 days
same,cytotoxicity (cell viability),[4],dose dependent cytotoxicity shown in all three cell lines
same,concentration at which nanofibers form a hydrogel,[5],higher than 0.4 wt %
same,hydrogel shape retention,[6]; after one month,retained its shape after one month
same,cumulative release of drug from the hydrogel,"[6]; hydrogel 1.2 wt %, over one month",about 15 % of total bound drug
CC(=O)N[C@@H](CSSCCCC(=O)O[C@@H](C(=O)O[C@H]1C[C@@]2(O)[C@@H](OC(=O)c3ccccc3)[C@@H]3[C@]4(OC(C)=O)CO[C@@H]4C[C@H](O)[C@@]3(C)C(=O)[C@H](OC(C)=O)C(=C1C)C2(C)C)[C@@H](NC(=O)c1ccccc1)c1ccccc1)C(=O)N[C@@H](Cc1ccccc1)C(=O)N[C@@H](Cc1ccccc1)C(=O)N[C@@H](Cc1ccccc1)C(=O)N[C@@H](CCCNC(=N)N)C(=O)NCC(=O)N[C@@H](CC(=O)O)C(=O)N[C@@H](CCCNC(=N)N)C(=O)O [PTX-buSS-FFFRGDR] (Ac-C(Paclitaxel(2'-OCO(CH2)3S))FFFRGDR-OH),in vitro cytotoxicity (cell viability),[1],near-identical toxicity to free PTX
same,in vitro cytotoxicity (cell viability),[2],near-identical toxicity to free PTX
CCCCCCCCCCCCCCCC(=O)N[C@@H](Cc1ccccc1)C(=O)N[C@@H](Cc1ccccc1)C(=O)N[C@@H](Cc1ccccc1)C(=O)N[C@@H](CCCNC(=N)N)C(=O)NCC(=O)N[C@@H](CC(=O)O)C(=O)N[C@@H](CCCNC(=N)N)C(=O)O [C16-FFFRGDR] (Palmitoyl-FFFRGDR-OH),in vitro cytotoxicity (cell viability),[1],didn't show any significant toxicity
same,cell viability by live/dead staining around the hydrogel,[7],non-toxicity against U87 cells in both regions
same,in vitro cytotoxicity (cell viability),[2],didn't show any significant toxicity
